Assay results as given in paper PMC3820480 (Nature, 2013).

What was measured:
GCGR = conditions: antagonist to glucagon; no reference given; cited from earlier work
[1] = test system: GCGR mutants of Trp295 and Asn298; test: Whole-cell glucagon binding assay, ECL2 mutants Trp295 and Asn298; design: species or system human; conditions: CHO-K1 cells, 40 pM 125I-glucagon, room temperature, 3 h

| Molecule | mode of antagonism (GCGR) | effect of mutation of ECL2 residues on ligand binding [1] |
| --- | --- | --- |
| CS(=O)(=O)c1cccc(NC(=O)N(Cc2ccc(C(=O)Nc3nn[nH]n3)cc2)c2ccc(C3CCCCC3)cc2)c1 [NNC0640] | competitive antagonist to glucagon |  |
| glucagon: 29 amino acid hormonal peptide, glucagon (Supplementary Fig. 1a) |  | strongly affects ligand binding |
